Test results published in patent publication US20180186968A1, “AGENT FOR SUPPRESSING ODORS OF POLYSULFIDE COMPOUNDS” (KAO CORPORATION, priority 2015, published 2018).

Experiments:
olfactory receptor OR4S2 [1] = target: T1, olfactory receptor OR4S2 (Homo sapiens, UniProt Q8NH73); experiment: Luciferase reporter gene assay: suppression of OR4S2 response to DMDS or DMTS by test substance (OR4S2 antagonist search); format: cell-based; conditions: for response of OR4S2 to DMDS in the presence of test substance (Response %): DMDS 1 mM, test substance 0 to 3000 μM, FIG. 4; for response of OR4S2 to DMTS in the presence of test substance (Fold increase): DMTS 300 μM, test substance 100 μM, FIG. 5
T1 construct: Flag-Rho tag (N); expressed in transfected cells; host or cells: HEK293
T1 sequence (Q8NH73 1-311): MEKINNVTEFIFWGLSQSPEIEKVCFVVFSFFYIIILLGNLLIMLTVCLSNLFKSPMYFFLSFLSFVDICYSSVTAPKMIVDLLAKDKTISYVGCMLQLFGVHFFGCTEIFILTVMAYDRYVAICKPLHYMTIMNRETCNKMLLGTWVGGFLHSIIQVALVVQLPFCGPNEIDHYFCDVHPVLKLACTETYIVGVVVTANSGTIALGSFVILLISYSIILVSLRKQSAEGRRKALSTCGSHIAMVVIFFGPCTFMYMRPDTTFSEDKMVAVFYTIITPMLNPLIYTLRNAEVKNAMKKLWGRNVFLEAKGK
Protocol: By using the same procedure as in Example 1 (1) to (3), HEK293 cells expressing OR4S2 (SEQ ID NO: 1) were prepared. The response of the olfactory receptor to DMDS (the value fLuc/hRluc) was measured in the presence and absence of a test substance by using luciferase reporter gene assay in accordance with the procedure in Example 1 (4). The value fLuc/hRluc induced by a stimulus of single DMDS, (X), the value fLuc/hRluc for cells without a stimulus of DMDS, (Y), and the value fLuc/hRluc induced by a co-stimulus of DMDS and a test substance, (Z), were determined, and the intensity of the response (Response (%)) of the receptor to DMDS in the presence of a test substance was determined by using the following formula.
Response (%)=(Z−Y)/(X−Y)×100
The experiment s performed independently three times, and the average value of the experiments was determined. The concentration of DMDS to be added to a culture was set a 1 mM, and the concentration of a test substance to be added was changed in the range of 0 to 3000 μM.
For the response to DMTS, the value fLuc/hRluc to a stimulus of single DMTS, (X′), was divided by the value fLuc/hRluc for cells without a stimulus of DMTS, (Y), and the calculated value, (X′/Y), was calculated as a value of the response to DMTS Fold increase). To compare the effect of a test substance on the response to DMTS, the value fLuc/hRluc induced by a co-stimulus of DMTS and a test substance, (Z′), was similarly divided by the value fLuc/hRluc for cells without a stimulus, (Y), to calculate (Z′/Y) as Fold increase. The experiment was performed independently three times, and the average value of the experiments was determined. The concentration of DMTS to be added to a culture was set at 300 μM, and the concentration of a test substance to be added set at 100 μM.

[2] = Sensory test of odor-suppressing effect for polysulfide compounds; format: in vivo, human; conditions: for odor intensity of DMTS (sensory evaluation): 0.01% (v/v) DMTS and 0.1% (v/v) test substance in mineral oil, 11 evaluators, FIG. 7; for odor intensity of DMDS (sensory evaluation): 0.1% (v/v) DMDS and 0.1% (v/v) test substance in mineral oil, 10 evaluators, FIG. 6
Protocol: The odor-suppressing effect of each of trimethylhexyl aldehyde (THA), cis-4-heptenal, and 1,4-cineol, as the OR4S2 antagonists identified in Example 2, for polysulfide compounds was checked in a sensory test.
For each of DMDS, THA, cis-4-heptenal, and 1,4-cineol, a 0.1% (v/v) solution in mineral oil was prepared. For DMTS, a 0.01% (v/v) solution in mineral oil was prepared. Two cotton balls were put in 20 mL glass bottle (Maruemu Corporation, No. 6), and one cottonball was impregnated with 30 μL of the DMDS or DMTS solution, and the other cotton ball was impregnated with 30 μL of a solution of one of the three OR4S2 antagonists. The glass bottle containing the cotton balls was covered with a lid, and left to stand at 37° C. for 1 hour, and thereafter used as a test sample for a sensory test. Glass bottles containing only cotton ball impregnated with the DMDS or DMTS solution were prepared as reference samples, and a glass bottle containing only cotton ball impregnated with mineral oil (Vehicle) was prepared as a control sample.
A sensory test was performed in a single-blinded mode with 10 evaluators for DMDS and 11evaluators for DMTS. The test was initiated after two o'clock pm, which was 1.5 hours or longer after a meal. To prevent diffusion of a smell, the test was performed essentially under a fume hood. To eliminate the influence of adaptation to odors of polysulfide compounds, the evaluators were appropriately checked for the intensity of recognition to the odor of DMDS or DMTS in the test, and rested as necessary. The evaluators were separated into two groups, and one group evaluated the odor-suppressing effect for DMDS or DMTS with respect to THA, cis-4-heptenal, and 1,4-cineol, in the presented, and the other group evaluated in with respect to 1,4-cineol, cis-4-heptenal, and THA, in the order presented. Each test sample was replaced with another one after evaluation by each of three evaluators.
In evaluation of odors of test samples, the following criteria in five grades were set for each evaluator; “odor of DMDS (or DMTS) was 1: unidentifiable, 2: perceivable, 3: easily identifiable, 4: strong, 5: intolerably strong”, and the evaluators rated the odor intensity of DMDS (or DMTS) for each test sample in nine grades from 1.0 to 5.0 at an interval of 0.5, where the odor intensity of single DMDS (or DMTS) was assumed as 3. The average value of the evaluation results by the evaluators was determined.

olfactory receptor OR4S2 [3] = target: T1, olfactory receptor OR4S2; experiment: Luciferase reporter gene assay: response of olfactory receptor to sulfur compounds; format: cell-based; conditions: for response of olfactory receptor OR4S2 to polysulfide compound (fold increase): 100 μM polysulfide compound, 428 olfactory receptors measured, HEK293 cells, FIG. 1; for response of OR4S2 at different concentrations: HEK293 cells expressing OR4S2, FIG. 2
Description: A human olfactory receptor cloned using the PCR method with human genomic DNA (G1521:Promega Corporation) as a template on the basis of sequence information registered in GenBank. Each gene amplified through the PCR method was incorporated into a pENTR vector (Invitrogen) in accordance with the manual, and recombined, by utilizing the NotI and AscI sites present in the pENTR vector, with a pME18S vector at the NotI and AscI sites produced in the downstream of he Flag-Rho tag sequence of the pME18S vector. • (2) Preparation of pME18S-human RTP1S Vector
A vector expressing receptor-transporting protein (RTP), a protein which promotes the expression of an olfactory receptor polypeptide on the cell membrane, was prepared. Specifically, a gene encoding human RTP1S (GI: 50234917) was incorporated into a pME18S vector at the EcoRI and XhoI sites thereof. • (3) Preparation of Olfactory Receptor-expressing Cells
HEK293 cells expressing any one of human olfactory receptors were produced. A reaction solution with a composition shown in Table 2 was prepared and left to stand in a clean bench for 15 minutes, and then added to each well of a 96-well plate (BD Biosciences). Subsequently, 90 μL of HEK293 cells (3×10^5 cells/cm^2) was seeded in each well, and cultured in an incubator retained at 37° C. and 5% CO2 for 24 hours. As a control, cells with conditions for no expression of an olfactory receptor (Mock) were prepared and used in an experiment.
An olfactory receptor expressed on HEK293 cells increases the intracellular cAMP level through conjugation with the intracellular Gas followed by resulting activation of adenylate cyclase. For smell response measurement in this study, luciferase reporter gene assay was used in which increase of the intracellular cAMP level is monitored as an emission value derived from a firefly luciferase gene (fluc2P-CRE-hygro). Transgenesis was simultaneously performed by using a product with a sea pansy luciferase gene fused to the downstream of the CMV promoter (hRluc-CMV), and the resultant was used as an internal standard to correct errors of transgenesis efficiency and the number of cells.
The medium was removed from the culture prepared in the above(3), and 75 μL of a solution containing a polysulfide compound prepared with DMEM (NACALAI TESQUE, INC.) was added. The polysulfide compound was 100 μM of dimethyl disulfide (DMDS) or dimethyl trisulfide (DMTS). The cells were cultured in a CO2 incubator for 3 hours to allow the luciferase gene to be sufficiently expressed in the cells. Measurement of the activity of luciferase was performed by using a Dual-Glo (TM) luciferase assay system (Promega Corporation) in accordance with an operation manual of the product. For each stimulus condition, the value fLuc/hRluc was calculated by dividing the emission value derived from sea pansy luciferase. The value fLuc/hRluc derived from firefly luciferase and induced by a stimulus of a polysulfide compound was divided by the value fLuc/hRluc for cells without a stimulus of a polysulfide compound to calculate a fold increase, and the fold increase was used as an indicator of intensity of response. • (5) Results

Row | Molecule | response of OR4S2 to DMTS in the presence of test substance (Fold increase) (olfactory receptor OR4S2 [1]) | response of OR4S2 to DMDS in the presence of test substance (Response %) (olfactory receptor OR4S2 [1]) | odor intensity of DMTS (sensory evaluation) [2] | odor intensity of DMDS (sensory evaluation) [2] | also measured
1 | CSSC [DMDS, Dimethyl disulfide] | – | – | – | – | response of olfactory receptor OR4S2 to polysulfide compound (fold increase) (olfactory receptor OR4S2 [3]): exhibits a specific response; response of OR4S2 at different concentrations (olfactory receptor OR4S2 [3]): concentration-dependent manner
2 | CSSSC [DMTS, Dimethyl trisulfide] | – | – | – | – | response of olfactory receptor OR4S2 to polysulfide compound (fold increase) (olfactory receptor OR4S2 [3]): exhibits a specific response; response of OR4S2 at different concentrations (olfactory receptor OR4S2 [3]): concentration-dependent manner
3 | CC(CC=O)CC(C)(C)C (stereo not drawn) [Trimethylhexyl aldehyde, 3,5,5-Trimethylhexanal] | suppressed the response of OR4S2 to DMTS | suppressed the response of OR4S2 to DMDS in a concentration-dependent manner | suppressed the odor intensity | suppressed the odor intensity | –
4 | C=C(C)[C@H]1CC=C(C)CC1 [dipentene, Dipentene] | – | suppressed the response of OR4S2 to DMDS in a concentration-dependent manner | – | – | –
5 | CS [methylmercaptan, Methylmercaptan] | – | – | – | – | response of OR4S2 to methylmercaptan (olfactory receptor OR4S2 [3]; 3 mm test substance, FIG. 3): did not respond
6 | CC1=CC=C(C(C)C)CC1 [α-terpinene, p-Mentha-1,3-diene] | suppressed the response of OR4S2 to DMTS | suppressed the response of OR4S2 to DMDS in a concentration-dependent manner | – | – | –
7 | (+)-Limonene oxide | suppressed the response of OR4S2 to DMTS | suppressed the response of OR4S2 to DMDS in a concentration-dependent manner | – | – | –

The next lines start with results.

Row | response of OR4S2 to DMTS in the presence of test substance (Fold increase) (olfactory receptor OR4S2 [1]) | Molecule | response of OR4S2 to DMDS in the presence of test substance (Response %) (olfactory receptor OR4S2 [1]) | odor intensity of DMTS (sensory evaluation) [2] | odor intensity of DMDS (sensory evaluation) [2] | also measured
8 | suppressed the response of OR4S2 to DMTS | CC(C)C12CCC(C)(CC1)O2 [1,4-cineol, 1,4-Cineole] | suppressed the response of OR4S2 to DMDS in a concentration-dependent manner | suppressed the odor intensity | suppressed the odor intensity | –
9 | suppressed the response of OR4S2 to DMTS | CCCCOC(=O)C(C)CC (stereo not drawn) [butyl 2-methylbutanoate, Butyl 2-methylbutanoate] | suppressed the response of OR4S2 to DMDS in a concentration-dependent manner | – | – | –
10 | suppressed the response of OR4S2 to DMTS | CC/C=C\CCC=O [cis-4-heptenal, (Z)-Hept-4-enal] | suppressed the response of OR4S2 to DMDS in a concentration-dependent manner | suppressed the odor intensity | suppressed the odor intensity | –
